We go through 3 compounds from US4864018A, “Anthraquinone derivatives and their use as protein absorbents” (Imperial Chemical Industries PLC, priority 1985, dated 1989).

T1 sequence (P00327 2-375 limits assumed): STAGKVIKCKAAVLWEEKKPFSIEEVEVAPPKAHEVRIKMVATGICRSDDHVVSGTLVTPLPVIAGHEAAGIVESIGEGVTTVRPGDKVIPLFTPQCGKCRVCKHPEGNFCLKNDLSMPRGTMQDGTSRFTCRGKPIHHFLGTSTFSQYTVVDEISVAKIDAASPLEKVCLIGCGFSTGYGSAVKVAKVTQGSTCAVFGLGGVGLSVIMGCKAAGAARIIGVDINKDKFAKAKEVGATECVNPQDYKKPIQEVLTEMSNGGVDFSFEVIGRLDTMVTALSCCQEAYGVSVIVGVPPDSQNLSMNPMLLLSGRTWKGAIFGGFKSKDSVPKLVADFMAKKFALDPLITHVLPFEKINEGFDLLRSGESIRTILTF

This assay concerns the target T1, horse liver alcohol dehydrogenase (Equus caballus, UniProt P00327).
T1 construct: from tissue; host or cells: horse liver
Kind of assay: affinity of binding with horse liver alcohol dehydrogenase: reduction in rate of enzyme de-activation by CI Reactive Blue 4 in competition with dye. Particulars: carboxylate (i), (ii), (iii) versus sulphonate (iv), (v), (vi) respectively. As to the method:
Three dyes of Formula I, in which the COOH group on Ring A is in the ortho (o), meta (m) and para (p) positions respectively, (i), (ii) and (iii) in Table 2, and three analogues in which the COOH groups are replaced by SO3 H groups, (iv), (v) and (vi) in Table 2, were assessed by affinity of binding with horse liver alcohol dehydrogenase. The assessment procedure comprised measuring the reduction in rate of enzyme de-activation by CI Reactive Blue 4 (a highly reactive, dichlorotriazine dye which rapidly deactivates horse liver alcohol dehydrogenase) when of dyes (i) to (vi) was allowed to compete with CI Reactive Blue 4 for the enzyme. From the reductions in rate observed the dissociation constants, KD, of the [enzyme-dye] combinations were calculated and these values are listed in Table 2.
For the compound `Nc1c(S(=O)(=O)O)cc(Nc2ccc(Nc3nc(Cl)nc(Nc4ccc(C(=O)O)cc4)n3)c(S(=O)(=O)O)c2)c2c1C(=O)c1ccccc1C2=O` [(iii)], the “binding affinity compared with the corresponding sulphonate analogue” value is “markedly and surprisingly higher”.

With `Nc1c(S(=O)(=O)O)cc(Nc2ccc(Nc3nc(Cl)nc(Nc4ccccc4C(=O)O)n3)c(S(=O)(=O)O)c2)c2c1C(=O)c1ccccc1C2=O` [(i)], the “binding affinity compared with the corresponding sulphonate analogue” value is “markedly and surprisingly higher”.

For the compound `Nc1c(S(=O)(=O)O)cc(Nc2ccc(Nc3nc(Cl)nc(Nc4cccc(C(=O)O)c4)n3)c(S(=O)(=O)O)c2)c2c1C(=O)c1ccccc1C2=O` [(ii)], the “binding affinity compared with the corresponding sulphonate analogue” value is “markedly and surprisingly higher”.
